# Measured values published in patent US20230295182A1, “SPIRO DERIVATIVES OF ALPHA-D-GALACTOPYRANOSIDES” (Idorsia Pharmaceuticals Ltd, priority 2020, published 2023).
# Columns and labels:
# [1] = target: human Gal-3 (hGal-3) (Homo sapiens (Human), UniProt P17931); assay: Competitive binding assay: biotinylated hGal-3 to microplate-adsorbed asialofetuin (ASF); settings: Activity on hGal-3; binding to ASF-coated plates, 3 hours at 4° C.; mean values
# Description: Evaluation of Compound Inhibitory Activity (IC50)
# The inhibitory activity of compounds is determined in competitive binding assays. This spectrophotometric assay measures the binding of biotinylated human Gal-3 (hGal-3) or human Gal-1 (hGal-1), respectively, to a microplate-adsorbed glycoprotein, asialofetuin (ASF) (Proc Natl Acad Sci USA. 2013 Mar. 26; 110(13):5052-7.). Alternatively, and preferably, a human Gal-1 version in which all six cysteines are substituted by serines may be used.
# Briefly, compounds are serially diluted in DMSO (working dilutions). ASF-coated 384 well plates are supplemented with 22.8 μL/well of biotinylated hGal-3 or hGal-1 in assay buffer (i.e. 300-1000 ng/mL biotinylated hGal-3 or hGal-1) to which 1.2 µL of compound working dilutions are added and mixed.
# Plates are incubated for 3 hours at 4° C., then washed with cold assay buffer (3×50 uL), incubated for 1 hour with 25 μL/well of a streptavidin-peroxidase solution (diluted in assay buffer to 80 ng/mL) at 4° C., followed by further washing steps with assay buffer (3×50 uL). Finally, 25 µL/well of ABTS substrate is added.
# The calculated IC50 values may fluctuate depending on the daily assay performance. Fluctuations of this kind are known to those skilled in the art. IC50 values from several measurements are given as mean values.
# [2] = target: human Gal-1 (hGal-1) (Homo sapiens, UniProt P09382); assay: Competitive binding assay: biotinylated hGal-1 to microplate-adsorbed asialofetuin (ASF); settings: Activities on hGal-1; binding to ASF-coated plates, 3 hours at 4° C.; mean values; read-out: Gal-1 IC50
# Description: Evaluation of Compound Inhibitory Activity (IC50) The inhibitory activity of compounds is determined in competitive binding assays. […] Alternatively, and preferably, a human Gal-1 version in which all six cysteines are substituted by serines may be used. Briefly, compounds are serially diluted in DMSO (working dilutions). […] Plates are incubated for 3 hours at 4° C., then washed with cold assay buffer (3×50 uL), incubated for 1 hour with 25 μL/well of a streptavidin-peroxidase solution (diluted in assay buffer to 80 ng/mL) at 4° C., followed by further washing steps with assay buffer (3×50 uL). Finally, 25 µL/well of ABTS substrate is added. […] The calculated IC50 values may fluctuate depending on the daily assay performance. Fluctuations of this kind are known to those skilled in the art. IC50 values from several measurements are given as mean values.
# Chain of human Gal-1 (hGal-1) (P09382 2-135 limits assumed): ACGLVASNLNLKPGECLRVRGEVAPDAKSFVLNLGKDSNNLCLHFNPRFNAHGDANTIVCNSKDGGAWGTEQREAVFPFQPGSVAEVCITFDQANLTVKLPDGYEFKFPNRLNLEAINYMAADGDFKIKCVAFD
# Chain of human Gal-3 (hGal-3) (P17931 whole entry): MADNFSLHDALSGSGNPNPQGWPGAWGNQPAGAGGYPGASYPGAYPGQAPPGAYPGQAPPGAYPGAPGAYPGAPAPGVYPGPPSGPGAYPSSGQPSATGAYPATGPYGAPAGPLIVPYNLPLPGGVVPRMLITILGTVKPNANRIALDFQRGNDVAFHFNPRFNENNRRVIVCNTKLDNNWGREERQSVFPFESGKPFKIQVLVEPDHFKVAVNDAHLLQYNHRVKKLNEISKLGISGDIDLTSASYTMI
Compound,IC50 [1],IC50 [2]
"CO[C@@H]1[C@@H](n2cc(-c3cc(F)c(F)c(F)c3)nn2)[C@@H](O)[C@@H](CO)O[C@@H]1CC1=NOC2(CCC(=O)CC2)C1 [Example 1.66, 3-(((2R,3R,4S,5R,6R)-5-hydroxy-6-(hydroxymethyl)-3-methoxy-4-(4-(3,4,5-trifluorophenyl)-1H-1,2,3-triazol-1-yl)tetrahydro-2H-pyran-2-yl)methyl)-1-oxa-2-azaspiro[4.5]dec-2-en-8-one]",250 nM,2700 nM
"CO[C@@H]1[C@@H](n2cc(-c3ccc(Cl)c(F)c3)nn2)[C@@H](O)[C@@H](CO)O[C@@H]1CC1=NOC2(CCCCC2)C1 [Example 1.12, (2R,3R,4S,5R,6R)-6-((1-oxa-2-azaspiro[4.5]dec-2-en-3-yl)methyl)-4-(4-(4-chloro-3-fluorophenyl)-1H-1,2,3-triazol-1-yl)-2-(hydroxymethyl)-5-methoxytetrahydro-2H-pyran-3-ol]",310 nM,1100 nM
"CO[C@@H]1[C@@H](n2cc(-c3cc(F)c(F)c(F)c3)nn2)[C@@H](O)[C@@H](CO)O[C@@H]1CC1=NOC2(CCCCCC2)C1 [Example 1.38, (2R,3R,4S,5R,6R)-6-((1-oxa-2-azaspiro[4.6]undec-2-en-3-yl)methyl)-2-(hydroxymethyl)-5-methoxy-4-(4-(3,4,5-trifluorophenyl)-1H-1,2,3-triazol-1-yl)tetrahydro-2H-pyran-3-ol]",160 nM,6400 nM
"CO[C@@H]1[C@@H](n2cc(-c3ccc(C)c(F)c3F)nn2)[C@@H](O)[C@@H](CO)O[C@@H]1CC1=NOC2(CCC(F)(F)CC2)C1 [Example 1.26, (2R,3R,4S,5R,6R)-6-((8,8-difluoro-1-oxa-2-azaspiro[4.5]dec-2-en-3-yl)methyl)-4-(4-(2,3-difluoro-4-methylphenyl)-1H-1,2,3-triazol-1-yl)-2-(hydroxymethyl)-5-methoxytetrahydro-2H-pyran-3-ol]",110 nM,4000 nM
"CO[C@@H]1[C@@H](n2cc(-c3ccc(C)c(F)c3F)nn2)[C@@H](O)[C@@H](CO)O[C@@H]1CC1=NO[C@]2(CC[C@H](NCC(F)F)CC2)C1 [Example 1.74, (2R,3R,4S,5R,6R)-4-(4-(2,3-difluoro-4-methylphenyl)-1H-1,2,3-triazol-1-yl)-6-(((5r,8R)-8-((2,2-difluoroethyl)amino)-1-oxa-2-azaspiro[4.5]dec-2-en-3-yl)methyl)-2-(hydroxymethyl)-5-methoxytetrahydro-2H-pyran-3-ol]",120 nM,2400 nM
"CO[C@@H]1[C@@H](n2cc(-c3ccc(Cl)c(F)c3F)nn2)[C@@H](O)[C@@H](CO)O[C@@H]1CC1=NO[C@]2(CC[C@@H](C(C)(C)O)CC2)C1 [Example 1.65, (2R,3R,4S,5R,6R)-4-(4-(4-chloro-2,3-difluorophenyl)-1H-1,2,3-triazol-1-yl)-2-(hydroxymethyl)-6-(((5s,8S)-8-(2-hydroxypropan-2-yl)-1-oxa-2-azaspiro[4.5]dec-2-en-3-yl)methyl)-5-methoxytetrahydro-2H-pyran-3-ol]",120 nM,2700 nM
"CO[C@@H]1[C@@H](n2cc(-c3ccc(Cl)c(F)c3F)nn2)[C@@H](O)[C@@H](CO)O[C@@H]1CC1=NO[C@]2(CC[C@H](NC(=O)OC(C)(C)C)CC2)C1 [Example 1.45, tert-butyl ((5r,8R)-3-(((2R,3R,4S,5R,6R)-4-(4-(4-chloro-2,3-difluorophenyl)-1H-1,2,3-triazol-1-yl)-5-hydroxy-6-(hydroxymethyl)-3-methoxytetrahydro-2H-pyran-2-yl)methyl)-1-oxa-2-azaspiro[4.5]dec-2-en-8-yl)carbamate]",10 nM,800 nM
"CO[C@@H]1[C@@H](n2cc(-c3cc(F)cc(Cl)c3)nn2)[C@@H](O)[C@@H](CO)O[C@@H]1CC1=NOC2(CCCCC2)C1 [Example 1.19, (2R,3R,4S,5R,6R)-6-((1-oxa-2-azaspiro[4.5]dec-2-en-3-yl)methyl)-4-(4-(3-chloro-5-fluorophenyl)-1H-1,2,3-triazol-1-yl)-2-(hydroxymethyl)-5-methoxytetrahydro-2H-pyran-3-ol]",680 nM,4200 nM
"CO[C@@H]1[C@@H](n2cc(-c3cc(F)c(F)c(F)c3)nn2)[C@@H](O)[C@@H](CO)O[C@@H]1CC1=NOC2(CCC(NC(=O)OC(C)(C)C)CC2)C1 (stereo partly drawn) [Example 1.11, tert-butyl (3-(((2R,3R,4S,5R,6R)-5-hydroxy-6-(hydroxymethyl)-3-methoxy-4-(4-(3,4,5-trifluorophenyl)-1H-1,2,3-triazol-1-yl)tetrahydro-2H-pyran-2-yl)methyl)-1-oxa-2-azaspiro[4.5]dec-2-en-8-yl)carbamate]",69 nM,1500 nM
"CO[C@@H]1[C@@H](n2cc(-c3ccc(C)c(F)c3F)nn2)[C@@H](O)[C@@H](CO)O[C@@H]1CC1=NOC2(CCCCC2)C1 [Example 1.14, (2R,3R,4S,5R,6R)-6-((1-oxa-2-azaspiro[4.5]dec-2-en-3-yl)methyl)-4-(4-(2,3-difluoro-4-methylphenyl)-1H-1,2,3-triazol-1-yl)-2-(hydroxymethyl)-5-methoxytetrahydro-2H-pyran-3-ol]",78 nM,2100 nM
"CO[C@@H]1[C@@H](n2cc(-c3cc(F)c(F)c(F)c3)nn2)[C@@H](O)[C@@H](CO)O[C@@H]1CC1=NO[C@]2(CC[C@H](C(C)C)CC2)C1 [Example 1.27, (2R,3R,4S,5R,6R)-2-(hydroxymethyl)-6-(((5r,8R)-8-isopropyl-1-oxa-2-azaspiro[4.5]dec-2-en-3-yl)methyl)-5-methoxy-4-(4-(3,4,5-trifluorophenyl)-1H-1,2,3-triazol-1-yl)tetrahydro-2H-pyran-3-ol]",1100 nM,18800 nM

# The remaining lines, values ahead:
IC50 [1],IC50 [2],Compound
140 nM,1300 nM,"CO[C@@H]1[C@@H](n2cc(-c3cc(F)c(F)c(F)c3)nn2)[C@@H](O)[C@@H](CO)O[C@@H]1CC1=NO[C@]2(CC[C@H](NC3CC3)CC2)C1 [Example 2.22, (2R,3R,4S,5R,6R)-6-(((5r,8R)-8-(cyclopropylamino)-1-oxa-2-azaspiro[4.5]dec-2-en-3-yl)methyl)-2-(hydroxymethyl)-5-methoxy-4-(4-(3,4,5-trifluorophenyl)-1H-1,2,3-triazol-1-yl)tetrahydro-2H-pyran-3-ol]"
280 nM,7200 nM,"CO[C@@H]1[C@@H](n2cc(-c3cc(F)c(F)c(F)c3)nn2)[C@@H](O)[C@@H](CO)O[C@@H]1CC1=NOC2(CCC(NCC(F)F)CC2)C1 (stereo partly drawn) [Example 2.15, (2R,3R,4S,5R,6R)-6-((8-((2,2-difluoroethyl)amino)-1-oxa-2-azaspiro[4.5]dec-2-en-3-yl)methyl)-2-(hydroxymethyl)-5-methoxy-4-(4-(3,4,5-trifluorophenyl)-1H-1,2,3-triazol-1-yl)tetrahydro-2H-pyran-3-ol]"
74 nM,400 nM,"CO[C@@H]1[C@@H](n2cc(-c3ccc(Cl)c(F)c3F)nn2)[C@@H](O)[C@@H](CO)O[C@@H]1CN1CC2(CCCCC2)CNC1=O [Example 4.02, 2-(((2R,3R,4S,5R,6R)-4-(4-(4-chloro-2,3-difluorophenyl)-1H-1,2,3-triazol-1-yl)-5-hydroxy-6-(hydroxymethyl)-3-methoxytetrahydro-2H-pyran-2-yl)methyl)-2,4-diazaspiro[5.5]undecan-3-one]"
62 nM,910 nM,"CO[C@@H]1[C@@H](n2cc(-c3ccc(Cl)c(F)c3F)nn2)[C@@H](O)[C@@H](CO)O[C@@H]1CC1=NO[C@]2(CC[C@H](NC(C)=O)CC2)C1 [Example 2.07, N-((5r,8R)-3-(((2R,3R,4S,5R,6R)-4-(4-(4-chloro-2,3-difluorophenyl)-1H-1,2,3-triazol-1-yl)-5-hydroxy-6-(hydroxymethyl)-3-methoxytetrahydro-2H-pyran-2-yl)methyl)-1-oxa-2-azaspiro[4.5]dec-2-en-8-yl)acetamide]"
320 nM,2900 nM,"CO[C@@H]1[C@@H](n2cc(-c3cc(F)c(F)c(F)c3)nn2)[C@@H](O)[C@@H](CO)O[C@@H]1CC1=NOC2(CCC(=NO)CC2)C1 (stereo partly drawn) [Example 2.18, 3-(((2R,3R,4S,5R,6R)-5-hydroxy-6-(hydroxymethyl)-3-methoxy-4-(4-(3,4,5-trifluorophenyl)-1H-1,2,3-triazol-1-yl)tetrahydro-2H-pyran-2-yl)methyl)-1-oxa-2-azaspiro[4.5]dec-2-en-8-one oxime]"
81 nM,11500 nM,"(2R,3R,4S,5R,6R)-6-((8,8-difluoro-1-oxa-2-azaspiro[4.5]dec-2-en-3-yl)methyl)-4-(4-(2,3-difluoro-4-methylphenyl)-1H-1,2,3-triazol-1-yl)-2-(hydroxymethyl)-5-methoxytetrahydro-2H-pyran-3-ol [Example 2.27]"
